Data on one compound can be found in patent publication US20220241316A1, “25-HYDROXYCHOLESTEROL (25HC), CRYAB AGGREGATION INHIBITOR, IS A NOVEL SENOLYTIC” (Buck Institute for Research on Aging, priority 2019, published 2022).

Assay [1] has as its system senescent mDFs. Description: Cell viability assay on NS and SEN mDFs treated with 25HC. The format is cell-based, mouse. The conditions noted are these: treatment 72 hrs. The method, then:
Panel A) Timeline for DMSO/Doxo treatment and early-time point timeline for 25HC treatment on NS and SEN cells. 25HC treatment was started immediately after removing DMSO/Doxo. Panel B) Cell viability assay was performed on NS and SEN cells treated with different concentrations of 25HC. 25HC treatment was done for 72 hrs. (Mean+/−SD, n=3, *p<0.05, **p<0.01 vs 0 uM by student's t-test).
Panel A) Timeline for DMSO/Doxo treatment and late-time point timeline for 25HC treatment on NS and SEN cells. 25HC treatment was started 7 days after removing DMSO/Doxo. Panel B) Cell viability assay was performed on NS and SEN cells treated with different concentrations of 25HC. 25HC treatment was done for 72 hrs. (Mean+/−SD, n=6, **p<0.01, ***p<0.001, **** p<0.0001, vs 0 uM by student's t-test).

For assay [2], the system named is senescent cells. In words: Evaluation of senolytic effects of 25HC, oxysterols and 25HC analogs in cell culture. The assay is classed as cell-based. Particulars: cell type not stated. An excerpt: Genetic knockdown of this gene kills senescent cells.
There are some commercially available analogs of 25HC such as oxysterols (Griffiths et al. (2019) Biochem Soc Trans., 47: 517-526).

In assay [3] the test system is senescent FAPs. Description: Cell viability assay on NS and SEN FAPs treated with 25HC. The assay is classed as cell-based, mouse. The conditions noted are these: 25HC started immediately after removing DMSO/Doxo (early-time point); treatment total 5 days; normalized to 0 uM. The method, then:
Panel A) Timeline for DMSO/Doxo treatment and early-time point timeline for 25HC treatment on NS and SEN cells. 25HC treatment was started immediately after removing DMSO/Doxo. Panel B) Cell viability assay was performed on NS and SEN cells treated with different concentrations of 25HC. 25HC treatment was done for total 5 days. The value was normalized to that of 0 uM. The average value of 0 μM is expressed as 100% (Mean+/−SE, n=3, **p<0.01 and ***p<0.001 by student's t-test vs NS).

The target of assay [4] is T1, CRYAB protein (Homo sapiens, UniProt P02511).
T1 sequence (P02511 1-175): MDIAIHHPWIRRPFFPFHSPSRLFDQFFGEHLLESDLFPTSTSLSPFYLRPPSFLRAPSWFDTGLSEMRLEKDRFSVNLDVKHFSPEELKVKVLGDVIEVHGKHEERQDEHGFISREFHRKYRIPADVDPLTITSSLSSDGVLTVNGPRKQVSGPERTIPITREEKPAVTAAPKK
The conditions noted are these: from Makley et al. (2015) / Xu et al. (2017); cited from earlier work.

For assay [5], the target named is T1, CRYAB protein. In words: Inhibition of CRYAB protein aggregation. Particulars: stated with reference to Example 1; no aggregation test described.

`C[C@H](CCCC(C)(C)O)[C@H]1CC[C@H]2[C@@H]3CC=C4C[C@@H](O)CC[C@]4(C)[C@H]3CC[C@]12C` [25HC, 25-hydroxycholesterol]: the “Cell viability of NS and SEN mDFs, late-time point” value in assay [1] (25HC started 7 days after removing DMSO/Doxo) was “specifically kills senescent mDFs at late-timepoint”. In addition, the “Cell viability of NS and SEN mDFs, early-time point” value in assay [1] (25HC started immediately after removing DMSO/Doxo) is “specifically kills senescent mDFs at early-timepoint”. The Senolytic effect result in assay [2] was “novel senolytic agent”. The “Cell viability of NS and SEN FAPs” value in assay [3] is reported as “specifically kills senescent FAPs”. Moreover, the “Inhibition of CRYAB / CRYAB protein aggregation (literature)” value in assay [4] was “effective inhibitor of CRYAB”. Moreover, in assay [5], the “Inhibition of CRYAB protein aggregation (as asserted in the description)” value was “effective inhibitor of CRYAB protein aggregation”.
